From US10793892B2, “Method for detecting the presence of expanded spectrum β-lactamase-producing bacteria in a sample” (INSERM (INSTITUT NATIONAL DE LA SANTE ET DE LA RECHERCHE …, priority 2011, dated 2020)

Legend:
K. oxytoca = experiment: Susceptibility testing, MIC by Etest; assay type: cell-based, Klebsiella oxytoca; conditions: K. oxytoca Wild-type penicillinase, n=1
Protocol: (§1) Susceptibility testing was performed by determining MIC values using the Etest® (AB bioMérieux; Solna, Sweden) on Mueller-Hinton agar plates at 37° C. and results were recorded according to US guidelines (CLSI), as updated in 2012 (2). The breakpoints for cefotaxime are susceptible (S)≤1 and resistant (R)≥4 μg/ml, and for ceftazidime S≤4 and R≥16 μg/ml.

K. pneumoniae = experiment: Susceptibility testing, MIC by Etest; assay type: cell-based, Klebsiella pneumoniae
Protocol: as §1

CTX-M producers = experiment: Susceptibility testing, MIC by Etest; assay type: cell-based, Enterobacteriaceae; conditions: all CTX-M producers (n=147)
Protocol: as §1

E. sakazakii = experiment: ESBL NDP test using cultured strains; assay type: biochemical; design: key: (+) and (−) referred to color change being, red to yellow or unchanged, respectively; (+) and (−) referred to color change being, red to yellow or unchanged, respectively; conditions: overexpressed chromosome-encoded cephalosporinase, n=1
Protocol: (§2) Strains were isolated on Mueller-Hinton agar (Biorad, Marnes-la-Coquette, France) and incubated at 37° C. for 16 h to 24 h before performing the NDP rapid ESBL test as follows. One calibrated inoculated loop (10 μl) of the tested strain was resuspended in 150 μl of 20 mM Tris-HCl lysis buffer previously distributed in Microbead tubes (Ultraclean Microbial DNA isolation kit Bead Tubes, MO BIO Laboratories, Carlsbad, USA). Mechanical lysis of bacteria was performed by strong agitation of Microbead tubes using a vortex adapter (MO BIO Laboratories) for 30 min at room temperature. This bacterial suspension was centrifuged at 10,000×g at room temperature for 5 min. Thirty μl of the supernatant was mixed in a well of a 96-well tray with 100 μl of a 1 ml solution made of 3 mg of purified cefotaxime sodium salt (Sigma-Aldrich, Saint-Quentin-Fallavier, France) in a pH 7.8 phenol red solution. […]. The phenol red solution was made by taking 2 ml of a concentrated pH 8 phenol solution (made from a mixture of phenol red 0.5% in distilled water) to which 16.6 ml of distilled water was added. The pH value was then adjusted to a 7.8 value by adding drops of a 1 N NaOH solution. Mixture of the phenol red solution and the enzymatic suspension being tested was incubated at 37° C. for 30 min. Similarly, culture extracts were analyzed in wells containing cefotaxime and tazobactam (4 mg/ml). Other concentrations of tazobactam and other ß-lactamase inhibitors were tested giving less clear results (data not shown). […] This definition of test positivity will be applied throughout the study.

C. brakii = experiment: ESBL NDP test using cultured strains; assay type: biochemical; design: key: (+) and (−) referred to color change being, red to yellow or unchanged, respectively; (+) and (−) referred to color change being, red to yellow or unchanged, respectively; conditions: C. brakii Wild-type, chromosome-encoded cephalosporinase, n=1
Protocol: as §2

S. ficaria = experiment: ESBL NDP test using cultured strains; assay type: biochemical; design: key: (+) and (−) referred to color change being, red to yellow or unchanged, respectively; (+) and (−) referred to color change being, red to yellow or unchanged, respectively
Protocol: as §2

S. thyphimurium = experiment: ESBL NDP test using cultured strains; assay type: biochemical; design: key: (+) and (−) referred to color change being, red to yellow or unchanged, respectively; (+) and (−) referred to color change being, red to yellow or unchanged, respectively; conditions: S. thyphimurium 10.81, CTX-M-1
Protocol: as §2

E. aerogenes = experiment: Susceptibility testing, MIC by Etest; assay type: cell-based, Enterobacter aerogenes
Protocol: as §1

S. marcescens = experiment: ESBL NDP test using cultured strains; assay type: biochemical, Serratia marcescens; design: key: (+) and (−) referred to color change being, red to yellow or unchanged, respectively; (+) and (−) referred to color change being, red to yellow or unchanged, respectively
Protocol: as §2

Compound `CO/N=C(\C(=O)N[C@@H]1C(=O)N2C(C(=O)O)=C(COC(C)=O)CS[C@H]12)c1csc(N)n1` [CTX, cefotaxime] has an MICs range (K. oxytoca) of 0.03 µg/mL, an MICs range (K. pneumoniae; K. pneumoniae CTX-M-3, n=1) of over 16 µg/mL and an MICs range (K. pneumoniae; K. pneumoniae CTX-M-14, n=3) of over 16 µg/mL. It also gave an MICs range (K. pneumoniae; K. pneumoniae CTX-M-15, n=28) of over 16 µg/mL, an MICs range (K. pneumoniae; K. pneumoniae DHA-1, n=1) of over 16 µg/mL and an MICs range (K. pneumoniae; K. pneumoniae DHA-2, n=1) of over 16 µg/mL. The MICs range (K. pneumoniae; K. pneumoniae GES-1, n=1) was 0.5 µg/mL, the MICs range (K. pneumoniae; K. pneumoniae SHV-2a, n=2) was 1 µg/mL and the MICs range (K. pneumoniae; K. pneumoniae SHV-5, n=2) was over 16 µg/mL. The MICs range (K. pneumoniae; K. pneumoniae SHV-12, n=1) was 1 µg/mL, the MICs range (K. pneumoniae; K. pneumoniae SHV-12, n=2) was 2 to 8 µg/mL and the MICs range (K. pneumoniae; K. pneumoniae SHV-28, n=3) was over 16 µg/mL. The MICs range (K. pneumoniae; K. pneumoniae TEM-52, n=2) was over 16 µg/mL, the MICs range (K. pneumoniae; K. pneumoniae Wild-type penicillinase, n=2) was 0.02 to 0.03 µg/mL and the MIC (CTX-M producers) was over 8 µg/mL. For the same compound, the “Test (color change)” value (E. sakazakii) was “−”, the “Test (color change)” value (C. brakii) was “−” and the “ESBL NDP Test from: Colonies” value (S. ficaria; S. ficaria CIP 104255, Wild-type) was “−”. For the same compound, the “Test (color change)” value (S. ficaria; S. ficaria Wild-type, chromosome-encoded cephalosporinase, n=1) was “−”, the “ESBL NDP Test from: Colonies” value (S. thyphimurium) was “+” and the MICs range (E. aerogenes; E. aerogenes TEM-24, n=6) was 0.5 to 8 µg/mL. The MICs range (E. aerogenes; E. aerogenes TEM-121, n=1) was under 0.06 µg/mL, the MICs range (E. aerogenes; E. aerogenes Wild-type, chromosome-encoded cephalosporinase, n=1) was 0.094 µg/mL and the “ESBL NDP Test from: Colonies” value (S. marcescens; S. marcescens BG 1107 4243, Wild-type) was “−”. The “ESBL NDP Test from: Colonies” value (S. marcescens; S. marcescens BN 1201 0816, Wild-type) was “−” and the “Test (color change)” value (S. marcescens; S. marcescens Wild-type, chromosome-encoded cephalosporinase, n=2) was “−”.
